Reference: ChEMBL document CHEMBL1777766, “Design, synthesis and in vitro antibacterial activity of 7-(4-alkoxyimino-3-aminomethylpiperidin-1-yl)fluoroquinolone derivatives” (Bioorg Med Chem Lett, 2011)
Converted amounts (≈) assume the structure as drawn.

Legend:
Proteus vulgaris = experiment: Antibacterial activity against Proteus vulgaris 56; type: functional
Serratia marcescens = experiment: Antibacterial activity against Serratia marcescens 41002; type: functional
Staphylococcus aureus [1] = experiment: Antibacterial activity against Staphylococcus aureus ATCC 13709; type: functional
Staphylococcus aureus [2] = experiment: Antibacterial activity against methicillin-sensitive Staphylococcus aureus 08-49; type: functional
[3] = tested on: Acinetobacter calcoaceticus; experiment: Antibacterial activity against Acinetobacter calcoaceticus 25001; type: functional
Escherichia coli [4] = experiment: Antibacterial activity against Extended spectrum beta-lactamase producing Escherichia coli 08-5; type: functional
Providencia rettgeri = experiment: Antibacterial activity against Proteus rettgeri 49006; type: functional
Klebsiella aerogenes = experiment: Antibacterial activity against Enterobacter aerogenes 45102; type: functional
Morganella morganii = experiment: Antibacterial activity against Morganella morganii 49086; type: functional
[5] = tested on: Staphylococcus epidermidis; experiment: Antibacterial activity against Staphylococcus epidermidis ATCC 12228; type: functional
Klebsiella pneumoniae = experiment: Antibacterial activity against Klebsiella pneumoniae ATCC 700603; type: functional
Staphylococcus aureus [6] = experiment: Antibacterial activity against methicillin-resistant Staphylococcus aureus 08-52; type: functional
[7] = tested on: Staphylococcus epidermidis; experiment: Antibacterial activity against methicillin-resistant Staphylococcus epidermidis 08-18; type: functional
Streptococcus pneumoniae [8] = experiment: Antibacterial activity against Streptococcus pneumoniae ATCC 6301; type: functional
Enterobacter cloacae = experiment: Antibacterial activity against Enterobacter cloacae 45301; type: functional
Enterococcus faecalis [9] = experiment: Antibacterial activity against vancomycin-resistant Enterococcus faecalis EFL1004; type: functional
Pseudomonas aeruginosa = experiment: Antibacterial activity against Pseudomonas aeruginosa 17; type: functional
Escherichia coli [10] = experiment: Antibacterial activity against Escherichia coli ATCC 25922; type: functional
Streptococcus pneumoniae [11] = experiment: Antibacterial activity against penicillin-resistant Streptococcus pneumoniae 08-2; type: functional
Enterococcus faecalis [12] = experiment: Antibacterial activity against Enterococcus faecalis ATCC 51299; type: functional
Salmonella typhi = experiment: Antibacterial activity against Bacillus typhi 50035; type: functional, Salmonella enterica subsp. enterica serovar Typhi; settings: Salmonella enterica
Streptococcus pyogenes = experiment: Antibacterial activity against Streptococcus pyogenes 556; type: functional
Shigella sonnei = experiment: Antibacterial activity against Shigella sonnei 51592; type: functional
[13] = tested on: Staphylococcus epidermidis; experiment: Antibacterial activity against methicillin-sensitive Staphylococcus epidermidis 08-17; type: functional
[14] = Cytotoxicity against african green monkey Vero cells after 24 hrs; type: cell-based; settings: chlorocebus sabaeus

Structure (SMILES) | MIC (Proteus vulgaris) [µg/mL] | MIC (Serratia marcescens) [µg/mL] | MIC (Staphylococcus aureus [1]) [µg/mL] | MIC (Staphylococcus aureus [2]) [µg/mL] | MIC [3] [µg/mL] | MIC (Escherichia coli [4]) [µg/mL] | MIC (Providencia rettgeri) [µg/mL] | MIC (Klebsiella aerogenes) [µg/mL] | MIC (Morganella morganii) [µg/mL] | MIC [5] [µg/mL] | MIC (Staphylococcus aureus [6]) [µg/mL] | MIC [7] [µg/mL] | MIC (Enterococcus faecalis [9]) [µg/mL] | MIC (Pseudomonas aeruginosa) [µg/mL] | MIC (Escherichia coli [10]) [µg/mL] | MIC (Enterococcus faecalis [12]) [µg/mL] | MIC (Salmonella typhi) [µg/mL] | MIC (Streptococcus pyogenes) [µg/mL] | MIC (Shigella sonnei) [µg/mL] | MIC [13] [µg/mL] | further results
CO/N=C1\CCN(c2c(F)cc3c(=O)c(C(=O)O)cn(C4CC4)c3c2F)CC1CN (racemic) | 4 (≈ 9.51 µM) | 4 (≈ 9.51 µM) | 0.5 (≈ 1.19 µM) | 0.5 (≈ 1.19 µM) | 2 (≈ 4.76 µM) | > 128 | 8 (≈ 19 µM) | 1 (≈ 2.38 µM) | 1 (≈ 2.38 µM) | 1 (≈ 2.38 µM) | 0.5 (≈ 1.19 µM) | 4 (≈ 9.51 µM) | 4 (≈ 9.51 µM) | 8 (≈ 19 µM) | 1 (≈ 2.38 µM) | 4 (≈ 9.51 µM) | 1 (≈ 2.38 µM) | 16 (≈ 38.1 µM) | 1 (≈ 2.38 µM) | 1 (≈ 2.38 µM) | MIC (Klebsiella pneumoniae): 16 µg/mL (≈ 38.1 µM); MIC (Streptococcus pneumoniae [8]): 8 µg/mL (≈ 19 µM); MIC (Enterobacter cloacae): 32 µg/mL (≈ 76.1 µM); MIC (Streptococcus pneumoniae [11]): 8 µg/mL (≈ 19 µM)
CCO/N=C1\CCN(c2c(F)cc3c(=O)c(C(=O)O)cn(C4CC4)c3c2F)CC1CN (racemic) | 4 (≈ 9.21 µM) | 4 (≈ 9.21 µM) | 0.5 (≈ 1.15 µM) | 0.25 (≈ 0.575 µM) | 2 (≈ 4.6 µM) | > 128 | 8 (≈ 18.4 µM) | 2 (≈ 4.6 µM) | 4 (≈ 9.21 µM) | 0.25 (≈ 0.575 µM) | 1 (≈ 2.3 µM) | 0.25 (≈ 0.575 µM) | 2 (≈ 4.6 µM) | 16 (≈ 36.8 µM) | 1 (≈ 2.3 µM) | 2 (≈ 4.6 µM) | 0.5 (≈ 1.15 µM) | 32 (≈ 73.7 µM) | 0.5 (≈ 1.15 µM) | 2 (≈ 4.6 µM) | CC50 at 24 h [14]: 257 µg/mL (≈ 591 µM); MIC (Klebsiella pneumoniae): 32 µg/mL (≈ 73.7 µM); MIC (Streptococcus pneumoniae [8]): 8 µg/mL (≈ 18.4 µM); MIC (Enterobacter cloacae): > 128 µg/mL; MIC (Streptococcus pneumoniae [11]): 4 µg/mL (≈ 9.21 µM)
CO/N=C1\CCN(c2c(F)cc3c(=O)c(C(=O)O)cn(C4CC4)c3c2OC(F)F)CC1CN (racemic) | 4 (≈ 8.54 µM) | 8 (≈ 17.1 µM) | 0.25 (≈ 0.534 µM) | 0.125 (≈ 0.267 µM) | 2 (≈ 4.27 µM) | > 128 | 4 (≈ 8.54 µM) | 2 (≈ 4.27 µM) | 4 (≈ 8.54 µM) | 0.5 (≈ 1.07 µM) | 1 (≈ 2.13 µM) | 0.5 (≈ 1.07 µM) | 4 (≈ 8.54 µM) | 8 (≈ 17.1 µM) | 1 (≈ 2.13 µM) | 1 (≈ 2.13 µM) | 0.5 (≈ 1.07 µM) | 4 (≈ 8.54 µM) | 16 (≈ 34.2 µM) | 1 (≈ 2.13 µM) | CC50 at 24 h [14]: 335 µg/mL (≈ 715 µM); MIC (Klebsiella pneumoniae): 32 µg/mL (≈ 68.3 µM); MIC (Streptococcus pneumoniae [8]): 4 µg/mL (≈ 8.54 µM); MIC (Enterobacter cloacae): 2 µg/mL (≈ 4.27 µM); MIC (Streptococcus pneumoniae [11]): 2 µg/mL (≈ 4.27 µM)
CO/N=C1\CCN(c2c(F)cc3c(=O)c(C(=O)O)cn(CCF)c3c2F)CC1CN (racemic) | 16 (≈ 37.5 µM) | 16 (≈ 37.5 µM) | 4 (≈ 9.38 µM) | 2 (≈ 4.69 µM) | 128 (≈ 300 µM) | > 128 | 16 (≈ 37.5 µM) | 32 (≈ 75 µM) | 16 (≈ 37.5 µM) | 8 (≈ 18.8 µM) | 8 (≈ 18.8 µM) | 8 (≈ 18.8 µM) | 16 (≈ 37.5 µM) | 32 (≈ 75 µM) | 8 (≈ 18.8 µM) | 8 (≈ 18.8 µM) | 8 (≈ 18.8 µM) | 32 (≈ 75 µM) | 32 (≈ 75 µM) | 32 (≈ 75 µM) | MIC (Klebsiella pneumoniae): 128 µg/mL (≈ 300 µM); MIC (Streptococcus pneumoniae [8]): 32 µg/mL (≈ 75 µM); MIC (Enterobacter cloacae): > 128 µg/mL; MIC (Streptococcus pneumoniae [11]): 16 µg/mL (≈ 37.5 µM)
O=C(O)c1cn(C2CC2)c2cc(N3CCNCC3)c(F)cc2c1=O [CIPROFLOXACIN] | ≤ 0.03 | 0.25 (≈ 0.754 µM) | – | 0.25 (≈ 0.754 µM) | 1 (≈ 3.02 µM) | 128 (≈ 386 µM) | ≤ 0.03 | ≤ 0.03 | ≤ 0.03 | 0.25 (≈ 0.754 µM) | 4 (≈ 12.1 µM) | 0.25 (≈ 0.754 µM) | 1 (≈ 3.02 µM) | 16 (≈ 48.3 µM) | ≤ 0.03 | 0.5 (≈ 1.51 µM) | ≤ 0.03 | 1 (≈ 3.02 µM) | ≤ 0.03 | 2 (≈ 6.04 µM) | MIC (Klebsiella pneumoniae): 0.5 µg/mL (≈ 1.51 µM); MIC (Streptococcus pneumoniae [8]): 1 µg/mL (≈ 3.02 µM); MIC (Streptococcus pneumoniae [11]): 1 µg/mL (≈ 3.02 µM)
CO/N=C1\CN(c2nc3c(cc2F)c(=O)c(C(=O)O)cn3C2CC2)CC1CN (stereo not given) [GEMIFLOXACIN] | ≤ 0.03 | 0.125 (≈ 0.321 µM) | ≤ 0.03 | ≤ 0.03 | 0.125 (≈ 0.321 µM) | 32 (≈ 82.2 µM) | 0.06 (≈ 0.154 µM) | ≤ 0.03 | 0.06 (≈ 0.154 µM) | 0.06 (≈ 0.154 µM) | 0.5 (≈ 1.28 µM) | ≤ 0.03 | 0.5 (≈ 1.28 µM) | 32 (≈ 82.2 µM) | ≤ 0.03 | 0.06 (≈ 0.154 µM) | ≤ 0.03 | 0.125 (≈ 0.321 µM) | ≤ 0.03 | 0.06 (≈ 0.154 µM) | MIC (Klebsiella pneumoniae): 0.5 µg/mL (≈ 1.28 µM); MIC (Streptococcus pneumoniae [8]): 0.5 µg/mL (≈ 1.28 µM); MIC (Enterobacter cloacae): ≤ 0.03 µg/mL; MIC (Streptococcus pneumoniae [11]): ≤ 0.03 µg/mL
C[C@H]1COc2c(N3CCN(C)CC3)c(F)cc3c(=O)c(C(=O)O)cn1c23.C[C@H]1COc2c(N3CCN(C)CC3)c(F)cc3c(=O)c(C(=O)O)cn1c23.O [LEVOFLOXACIN] | ≤ 0.03 | 0.25 | 0.06 | 0.06 | 0.25 | 32 | 0.25 | ≤ 0.03 | ≤ 0.03 | 0.125 | 1 | 0.125 | 2 | 8 | ≤ 0.03 | 0.25 | ≤ 0.03 | 1 | ≤ 0.03 | 1 | MIC (Enterobacter cloacae): 0.06 µg/mL
